Assay results: patent US20090318561A1 (MUTUAL PHARMACEUTICAL COMPANY, INC., priority 2008, published 2009)
Where “and” joins values, the source holds several entries; their conditions need not be identical. Equal entries are not always repeated. Where two headings read alike, the source gives them in different places.

Experiments:
CYP1A2 mRNA [1] = assay: Quantitative RT-PCR analysis of CYP1A2 mRNA content in primary human hepatocytes; conditions: 3-MC 2 μM; for Relative Fold mRNA Content: single sample
Description: (§1) After isolation, hepatocytes were re-suspended in Dulbecco's modified Eagle medium (DMEM; Gibco BRL, Grand Island, N.Y.) containing 5% fetal bovine serum (FBS; Gibco BRL), insulin and dexamethasone (Gibco BRL) and added to plates coated with a collagen type I substratum (BD Biosciences, Bedford, Mass.). After attachment, serum-free William's E medium containing dexamethasone, insulin, transferrin, selenium (ITS^+, BD Biosciences) was added. Cultures of hepatocytes were maintained for 36 to 48 hours prior to initiating experiments.
(§2) Dosing solutions were prepared fresh daily in cell culture medium such that the final dimethyl sulfoxide (DMSO) concentration was 0.1%. At the conclusion of the treatment period, cells were incubated with substrates and harvested for total RNA isolations.
(§3) Cells in 24-well format were washed with one volume (0.5 mL) of Hank's Balanced Salt Solution and lysed by addition of 350 μL of ABI Nucleic Acid Lysis Solution (Applied Biosystems, Foster City, Calif.) and frozen at −70° C. Lysates were thawed and total RNA was isolated from each sample using an ABI 6100 Prepstation. Isolated RNA was analyzed using a Nanoprop® spectrophotometer (Wilmington, Del.) to estimate the total RNA concentrations, and RNA was stored at −70° C. For reverse transcription (RT), approximately 200 ng of pooled total RNA was converted to cDNA following the manufacturer's procedure for the High Capacity cDNA Archive Kit (Applied Biosystems, Foster City, Calif.).
(§4) CYP1A2 cDNA from human hepatocyte cultures was analyzed from each RT reaction using gene-specific TAQMAN® primer/probe sets (Applied Biosystems). Reactions with the specific primer/probes for beta-actin were analyzed as an endogenous control for CYP450 expression. Amplifications were performed on an ABI 7500 Real-Time PCR System (Applied Biosystems) in relative quantification mode for 40 amplification cycles using standard conditions for TaqMan®-based assays. Threshold cycle (CT) determinations were performed by the ABI 7500 system software for both CYP450 and endogenous control gene □-actin. Relative-fold mRNA content was determined for each treatment group relative to the endogenous control gene expression and 0.1% DMSO vehicle control for each sample using the relationship:
2^−ΔΔC^T=relative-fold mRNA content.
(§5) Data (activities and mRNA) were analyzed for mean and standard error. […] Initially, data were examined for homoscedasticity and normality (of residuals from the ANOVA model fitting) using Levene's and Shapiro-Wilk tests, respectively.
(§6) Negative control cultures were treated with media alone (in the presence or absence of 0.1% DMSO).

CYP1A2 mRNA [2] = conditions: human, 3 days
Description: as §1, §2, §3, §4
2^−ΔΔC^T=relative-fold mRNA content.
as §5, §6

## Cc1ccc2cc3c(ccc4ccccc43)c3c2c1CC3 [3-MC, 3-methylcholanthrene]
CYP1A2 mRNA [1]; lot Hu485
  Mean Relative Fold mRNA Content: 396
  Percent of Adjusted Positive Control: 100.00%
  Relative Fold mRNA Content: 361 and 445 and 380
CYP1A2 mRNA [1]; lot Hu503
  Mean Relative Fold mRNA Content: 161
  Percent of Positive Control: 100.00%
  Relative Fold mRNA Content: 167 and 137 and 180
CYP1A2 mRNA [1]; lot Hu4021
  Mean Relative Fold mRNA Content: 71.9
  Percent of Positive Control: 100.00%
  Relative Fold mRNA Content: 68.7 and 69.1 and 77.8

## CC[C@]1(O)C[C@@H]2CN(CCc3c([nH]c4ccccc34)[C@@](C(=O)OC)(c3cc4c(cc3OC)N(C)[C@H]3[C@@](O)(C(=O)OC)[C@H](OC(C)=O)[C@]5(CC)C=CCN6CC[C@]43[C@@H]65)C2)C1 [vinblastine]
CYP1A2 mRNA [2]; 1 nM
  Percent of Adjusted Positive Control: 1.23%
CYP1A2 mRNA [2]; 10 nM
  Percent of Adjusted Positive Control: 1.18%
CYP1A2 mRNA [2]; 100 nM
  Percent of Adjusted Positive Control: 0.70%
